Data: patent US7521057B2, “Lamprey GnRH-III polypeptides and methods of making thereof” (University of New Hampshire, priority 2002, dated 2009)
Where two headings read alike, the source gives them in different places. [ ]: non-standard residue; d: D form. pGlu = O=C1CC[C@@H](C(=O)O)N1

How the values were obtained:
adult sea lampreys = settings: cited from earlier work; for plasma estradiol: adult female lampreys, injections; for ovulation / timing of ovulation: female lampreys; for gametogenesis: male and female sea lampreys, previous studies
type-I GnRH-binding site = experiment: Competition binding in pituitary of male sea lampreys, type-I GnRH binding site; design: species or system P. marinus; settings: for Ki: pituitary of adult male land-locked P. marinus, tracer iodinated [DAla6, Pro9Net]-mammalian GnRH, K1 from IC50
Experimental: (§1) In another study, the binding affinity in the pituitary of male sea lampreys was determined with lamprey GnRH-I and -III analogs in an effort to better understand the structure-activity relations of the lamprey GnRH molecule (Mateme and Sower, unpublished). Competition studies were performed using the iodinated DAla^6, Pro^9Net]-mammalian GnRH as the tracer with each of the following analogs: [D-Phe^2, Gly^6]-lGnRH-I (Peninsula Labs, Cali.); and the following lGnRH-III analogs: [D-Phe^2,6, Pro^3], [D-Phe^2, Gly^6], and [Ac-Delta-3Pro, 4FDPhe^2-D-Trp^3,6] from American Peptide, Cali. […] The level of significance was P<0.0001 See TABLE 5 for the results of these experiments. The results shown in Table 5 summarize experiments using various analogs.
(§2) Inhibition constants (K1) of lamprey GnRH-putative antagonists in the pituitary of adult male land-locked P. marinus. […] The data were plotted on a logit-log plot and the K1 determined from the IC50 using the Prism software.

[1] = target: type-II GnRH binding site; experiment: Competition binding in pituitary of male sea lampreys, type-II GnRH binding site; design: species or system P. marinus; settings: for Ki: pituitary of adult male land-locked P. marinus, tracer iodinated [DAla6, Pro9Net]-mammalian GnRH, K1 from IC50
Experimental: as §1, §2

[2] = system: adult male and female sea lamprey; settings: compared to controls, cited from earlier work; for spawning behavior: experiment 2, females
[3] = Plasma GnRHa after injection of sustained-release microspheres or implants in lampreys; type: in vivo, sea lamprey
Experimental: Thus, experiments were conducted to determine the optimal injection site and delivery agent that would best ensure a slow, constant release of the active compound, in this case, D-Ala^6 Pro^9Net mammal GnRH (GnRHa) over a period of four weeks. In the plasma, GnRH is easily degraded by protolytic enzymes. Therefore a simple injection will not elevate plasma GnRH levels for the duration of time required to ensure the appropriate reproductive effect. If a GnRH analog were used to sterilize wild fish, the method would have to maintain high levels of GnRH in the plasma for the length of the spawning season, or about 6 weeks in the case of sea lamprey in the Great Lakes. It was believed that controlled release of GnRH could be attained by injection of biodegradable microspheres or implants containing a GnRH analog, and experiments were performed to determine if high enough GnRH levels could be maintained for the required duration using such a method.
In Applicant's experiments microspheres (in a dose of 75 ug GnRHa/lamprey) and 2 mm implants were injected either intramuscularly (IM) or intraperitoneally (IP). At week 1, plasma GnRHa was detected in two-thirds of the lampreys injected IP, either with microspheres (5.0+/−1.3 ng/ml) or implants (1.6+/−0.3 ng/ml).
Only the lampreys injected IM with microspheres still had detectable levels of GnRHa after 3 weeks (2.9+/−1.5 ng/ml). Based on the results of these experiments, the best method of sustained release of GnRHa was determined to be via IM injection using microspheres.

[4] = pituitary of male sea lampreys, in words

Compound | plasma estradiol (adult sea lampreys) | ovulation / timing of ovulation (adult sea lampreys) | gametogenesis (adult sea lampreys) | Ki (type-I GnRH-binding site) [nM] | Ki [1] [nM] | spawning behavior [2] | spawning activity ([2]; experiment 2, males) | spawning activity ([2]; experiment 3, males) | further results
[Ac-3 Pro^1, 4-FD-Phe^3, D-Trp^3,6] mammalian GnRH | no apparent effect | no apparent effect | decrease gametogenesis |  |  |  |  |  | 
[D-Phe^2, Gly^6]-lGnRH-I [[D-Phe^2, Gly^6]-1GnRH-I] |  |  |  | 1.37 | 5650 |  |  |  | 
[D-Phe^2,6, Pro^3] lamprey GnRH |  | inhibited ovulation | decrease gametogenesis |  |  | inhibited | stimulated earlier spawning activity | induced earlier spawning activity | plasma progesterone levels (adult sea lampreys; male sea lampreys): reduced; spermiation (adult sea lampreys; male sea lampreys): inhibited spermiation
[D-Ala^6, Pro^9 Net lamprey GnRH] [lamprey GnRH agonist] |  |  |  |  |  | inhibited | stimulated earlier spawning activity | inhibited spawning activity | 
CCNC(=O)[C@@H]1CCCN1C(=O)[C@H](CCCNC(=N)N)NC(=O)[C@H](CC(C)C)NC(=O)[C@@H](C)NC(=O)[C@H](Cc1ccc(O)cc1)NC(=O)[C@H](CO)NC(=O)[C@H](Cc1c[nH]c2ccccc12)NC(=O)[C@H](Cc1c[nH]cn1)NC(=O)[C@@H]1CCC(=O)N1 [[DAla^6, Pro^9Net]-m GnRH, [DAla^6, Pro^9Net]-mammalian GnRH] | significantly elevated | advanced ovulation by at least several weeks |  | 0.00311 | 89 |  |  |  | affinity for type-I GnRH binding site (type-I GnRH-binding site; [4]): high affinity; affinity for type-II GnRH binding site [1, 4]: high affinity; level at 504 h ([3]; plasma, 75 ug GnRHa/lamprey, after 3 weeks, microspheres injected IM): 2.9 ng/mL; level at 168 h ([3]; plasma, 75 ug GnRHa/lamprey, week 1, microspheres injected IM): 4.2 ng/mL; level at 336 h ([3]; plasma, 75 ug GnRHa/lamprey, week 2, microspheres injected IM): 3.1 ng/mL; level at 168 h ([3]; plasma, week 1, 2 mm implants injected IP): 1.6 ng/mL; level at 168 h ([3]; plasma, week 1, microspheres injected IP, 75 ug GnRHa/lamprey): 5 ng/mL; share of lampreys with detectable plasma GnRHa ([3]; week 1, injected IP, microspheres or implants): two-thirds; share of lampreys with detectable plasma GnRHa ([3]; week 1, microspheres injected IM): Ninety percent; share of lampreys with detectable plasma GnRHa ([3]; week 2, IP with microspheres and IP with implants): less than thirty percent; share of lampreys with detectable plasma GnRHa ([3]; week 2, microspheres injected IM): ninety-two percent
lamprey GnRH-I: native decapeptide pGlu His Tyr Ser Leu Glu Trp Lys Pro Gly-NH2 (Table 1) ([pGlu]HYSLEWKPG-NH2; SMILES CC(C)C[C@H](NC(=O)[C@H](CO)NC(=O)[C@H](Cc1ccc(O)cc1)NC(=O)[C@H](Cc1c[nH]cn1)NC(=O)[C@@H]1CCC(=O)N1)C(=O)N[C@@H](CCC(=O)O)C(=O)N[C@@H](Cc1c[nH]c2ccccc12)C(=O)N[C@@H](CCCCN)C(=O)N1CCC[C@H]1C(=O)NCC(N)=O) |  |  |  |  |  |  |  | delayed spawning activity | spermiation/ovulation (adult sea lampreys; adult sea lampreys): induce; steroidogenesis (adult sea lampreys; adult sea lampreys): induce
